Key:
Type in all cases: in vivo
Conditions in all cases: applied at 1000 g/h, evaluated after 13 days
[1] = system: Amaranthus retoflexus (AMARE); assay: Herbicidal glasshouse test, post-emergence, AMARE
Description: (§1) Seeds of a variety of test species are sown in standard soil in pots (Alopecurus myosuroides (ALOMY), Setaria faberi (SETFA), Echinochloa crus-galli (ECHCG), Solanum nigrum (SOLNI), Amaranthus retoflexus (AMARE), Ipomoea hederacea (IPOHE)). After cultivation for one day (pre-emergence) or after 8 days cultivation (post-emergence) under controlled conditions in a glasshouse (at 24/16° C., day/night; 14 hours light; 65% humidity), the plants are sprayed with an aqueous spray solution derived from the formulation of the technical active ingredient in acetone / water (50:50) solution containing 0.5% Tween 20 (polyoxyethelyene sorbitan monolaurate, CAS RN 9005-64-5). […] The test plants are then grown in a glasshouse under controlled conditions in a glasshouse (at 24/16° C., day/night; 14 hours light; 65% humidity) and watered twice daily. After 13 days for pre and post-emergence, the test is evaluated for the percentage damage caused to the plant. The biological activities are shown in the following table on a five point scale (5=80-100%; 4=60-79%; 3=40-59%; 2=20-39%; 1=0-19%).

Solanum nigrum (SOLNI) [2] = assay: Herbicidal glasshouse test, pre-emergence, SOLNI
Description: as §1

[3] = system: Amaranthus retoflexus (AMARE); assay: Herbicidal glasshouse test, pre-emergence, AMARE
Description: as §1

Setaria faberi (SETFA) [4] = assay: Herbicidal glasshouse test, pre-emergence, SETFA
Description: as §1

[5] = system: Ipomoea hederacea (IPOHE); assay: Herbicidal glasshouse test, post-emergence, IPOHE
Description: as §1

Solanum nigrum (SOLNI) [6] = assay: Herbicidal glasshouse test, post-emergence, SOLNI
Description: as §1

[7] = system: Echinochloa crus-galli (ECHCG); assay: Herbicidal glasshouse test, post-emergence, ECHCG
Description: as §1

[8] = system: Echinochloa crus-galli (ECHCG); assay: Herbicidal glasshouse test, pre-emergence, ECHCG
Description: as §1

[9] = system: Ipomoea hederacea (IPOHE); assay: Herbicidal glasshouse test, pre-emergence, IPOHE
Description: as §1

Setaria faberi (SETFA) [10] = assay: Herbicidal glasshouse test, post-emergence, SETFA
Description: as §1

[11] = system: Alopecurus myosuroides (ALOMY); assay: Herbicidal glasshouse test, post-emergence, ALOMY
Description: as §1

[12] = system: Alopecurus myosuroides (ALOMY); assay: Herbicidal glasshouse test, pre-emergence, ALOMY
Description: as §1

Compound	POST Application AMARE, percentage damage (five point scale) [1]	PRE Application SOLNI, percentage damage (five point scale) (Solanum nigrum (SOLNI) [2])	PRE Application AMARE, percentage damage (five point scale) [3]	PRE Application SETFA, percentage damage (five point scale) (Setaria faberi (SETFA) [4])	POST Application IPOHE, percentage damage (five point scale) [5]	POST Application SOLNI, percentage damage (five point scale) (Solanum nigrum (SOLNI) [6])	POST Application ECHCG, percentage damage (five point scale) [7]	PRE Application ECHCG, percentage damage (five point scale) [8]	PRE Application IPOHE, percentage damage (five point scale) [9]	POST Application SETFA, percentage damage (five point scale) (Setaria faberi (SETFA) [10])	POST Application ALOMY, percentage damage (five point scale) [11]	PRE Application ALOMY, percentage damage (five point scale) [12]
C=CCn1nc(C(=O)Nc2nnnn2C)c(=O)n(Cc2cccc(F)c2)c1=O [Compound 1.014]	5 (5=80-100%)	5 (5=80-100%)	5 (5=80-100%)	1 (1=0-19%)	5 (5=80-100%)	5 (5=80-100%)	4 (4=60-79%)	5 (5=80-100%)	5 (5=80-100%)	5 (5=80-100%)	2 (2=20-39%)	3 (3=40-59%)
Cn1nnnc1NC(=O)c1nn(C)c(=O)n(Cc2cccc(C(F)F)c2)c1=O [Compound 1.079]	5 (5=80-100%)	5 (5=80-100%)	5 (5=80-100%)	1 (1=0-19%)	5 (5=80-100%)	5 (5=80-100%)	5 (5=80-100%)	5 (5=80-100%)	4 (4=60-79%)	2 (2=20-39%)	4 (4=60-79%)	5 (5=80-100%)
CC#CCn1nc(C(=O)Nc2nnnn2C)c(=O)n(-c2cccc(F)c2)c1=O [Compound 1.012]	5 (5=80-100%)	5 (5=80-100%)	4 (4=60-79%)	1 (1=0-19%)	4 (4=60-79%)	5 (5=80-100%)	5 (5=80-100%)	3 (3=40-59%)	5 (5=80-100%)	5 (5=80-100%)	5 (5=80-100%)	4 (4=60-79%)
COc1ccc(-n2c(=O)c(C(=O)Nc3nnnn3C)nn(C)c2=O)cc1Cl [Compound 1.045]	5 (5=80-100%)	5 (5=80-100%)	5 (5=80-100%)	5 (5=80-100%)	5 (5=80-100%)	5 (5=80-100%)	5 (5=80-100%)	5 (5=80-100%)	5 (5=80-100%)	5 (5=80-100%)	5 (5=80-100%)	5 (5=80-100%)
CCCCn1c(=O)c(C(=O)Nc2nnnn2C)nn(C)c1=O [Compound 1.001]	5 (5=80-100%)	5 (5=80-100%)	5 (5=80-100%)	5 (5=80-100%)	5 (5=80-100%)	5 (5=80-100%)	5 (5=80-100%)	5 (5=80-100%)	5 (5=80-100%)	5 (5=80-100%)	5 (5=80-100%)	5 (5=80-100%)
Cn1nnnc1NC(=O)c1nn(C)c(=O)n(Cc2ccccc2C#N)c1=O [Compound 1.083]	5 (5=80-100%)	5 (5=80-100%)	5 (5=80-100%)	5 (5=80-100%)	5 (5=80-100%)	5 (5=80-100%)	5 (5=80-100%)	5 (5=80-100%)	5 (5=80-100%)	5 (5=80-100%)	5 (5=80-100%)	5 (5=80-100%)
Cc1ccc(Cn2c(=O)c(C(=O)Nc3nnnn3C)nn(C)c2=O)cc1 [Compound 1.051]	5 (5=80-100%)	5 (5=80-100%)	5 (5=80-100%)	1 (1=0-19%)	5 (5=80-100%)	5 (5=80-100%)	5 (5=80-100%)	5 (5=80-100%)	5 (5=80-100%)	2 (2=20-39%)	5 (5=80-100%)	5 (5=80-100%)

Source: patent publication US20160009693A1, “HERBICIDAL COMPOUNDS” (SYNGENTA LIMITED, priority 2013, published 2016)
